The values below come from paper doi:10.1101/2022.02.04.479134, “A Suite of TMPRSS2 Assays for Screening Drug Repurposing Candidates as Potential Treatments of COVID-19” (bioRxiv, 2022).

“Also recorded” adds a separate entry of the source. Counter-ions that a name gives are not always drawn. Like-named read-outs stand apart in the source and are kept apart here.

For test [1], the system named is SARS-CoV-2 spike pseudotyped particles (Delta variant B.1.617.2) entry into Calu-3 cells. Briefly: microbe, parasite or virus in culture. Conditions: for inhibition of pseudotyped particle entry: variant not stated; for Emax: Severe acute respiratory syndrome coronavirus 2, Calu-3, read-out: SARS-CoV-2 PP (Delta) Max Response; for AC50: 48 h, N/D = Not Detected, read-out: SARS-CoV-2 PP (Delta) AC50; for SARS-CoV-2 PP (Delta) Max Response: PP wells 0%, bald PP −100%. The format is cell-based.

In test [2] the test system is SARS-CoV-2 spike pseudotyped particles (WA1 + D614G) entry into Calu-3 cells. The format is cell-based. Conditions: for AC50: read-out: SARS-CoV-2 PP (WA1 + D614G) AC50.
Where [3] appears, read: Severe acute respiratory syndrome coronavirus 2, Calu-3 cells.
Where [4] appears, read: Calu-3 cells, read-out: IC50 Delta pseudotyped particle entry.
[5] abbreviates: Severe acute respiratory syndrome coronavirus 2, Calu-3, read-out: IC50 Delta pseudotyped particle entry, Calu-3 cells.
The mark [6] stands for this setting: Severe acute respiratory syndrome coronavirus 2, Calu-3, variant not given, matches Delta values, read-out: IC50 blocking of entry into Calu-3 cells using pseudotyped particles with SARS-CoV-2 spike protein.

As for `O=c1ccc2ccc(O)cc2o1` [7-Hydroxycoumarin], the “inhibition of pseudotyped particle entry” value in test [1] (Calu-3 cells) was “lack of activity; also recorded: nor any inhibition of pseudotyped particle entry”.
Consider `CC(C)C[C@H](NC(=O)[C@H](Cc1ccccc1)NC(=O)c1cnccn1)B(O)O` [Bortezomib], for which the IC50 in test [1] (Severe acute respiratory syndrome coronavirus 2, Calu-3, Calu-3 cells, apparent, due to cytotoxicity, read-out: IC50 inhibition of viral entry (variant not stated)) is < 0.05 µM. Also, the Emax in test [1] is -100%. For the same compound, the AC50 in test [1] (setting [3]) and in test [2] was < 0.05 µM each time. Also, the “SARS-CoV-2 PP (WA1 + D614G) Max Response” value in test [2] is -100%.
As for `CN(C)C(=O)COC(=O)Cc1ccc(OC(=O)c2ccc(NC(=N)N)cc2)cc1` [Camostat], the IC50 in test [1] (setting [4]) was 0.059 µM; in test [1] (setting [5]), 0.0588 µM; in test [2] (read-out: IC50 WA1 + D614G pseudotyped particle entry) it was 0.05 µM. Moreover, in test [1], the Emax was -92%. In addition, the figures for the AC50 in test [1] (setting [3]) and in test [2] were 0.059 µM and 0.05 µM, respectively. In test [2], the “SARS-CoV-2 PP (WA1 + D614G) Max Response” value was -95%.
For the compound `NC[C@H]1CC[C@H](C(=O)Oc2ccc(CCC(=O)O)cc2)CC1` [Cetraxate HCl], in test [1], the Emax is 30%. In addition, the AC50 in test [1] (setting [3]) was 23.3 µM.
As to `N=C(N)c1cccc(CC(NS(=O)(=O)c2cccc(-c3ccc(Cl)cc3Cl)c2)C(=O)N2CCC(CCN)CC2)c1` (centres unmarked) [Cmpd 92 (Meyer)], the Emax in test [1] came out at 92%. For the same compound, the IC50 in test [1] (setting [6]) stood at 4 µM. Moreover, the AC50 in test [1] (setting [3]) stood at 3.98 µM. Also, in test [2], the “SARS-CoV-2 PP (WA1 + D614G) Max Response” value is recorded as -70% and the AC50 was determined as 2.05 µM.
For `N=C(N)c1cccc(CC(NS(=O)(=O)c2cccc(-c3ccc(Cl)cc3Cl)c2)C(=O)N2CCC(NC(=O)NC3CCCCC3)CC2)c1` (centres unmarked) [Cmpd 114 (Meyer)], in test [1], the Emax came out at 99%. The IC50 in test [1] (setting [6]) turned out to be 15 µM. In test [1] (setting [3]), the AC50 came to 15.3 µM. For the same compound, in test [2], the “SARS-CoV-2 PP (WA1 + D614G) Max Response” value is reported as -88% and the AC50 came to 5.35 µM.
For `COC(=O)N[C@H](C(=O)N1CCC[C@H]1c1nc(-c2ccc(-c3ccc(-c4c[nH]c([C@@H]5CCCN5C(=O)[C@@H](NC(=O)OC)C(C)C)n4)cc3)cc2)c[nH]1)C(C)C` [Daclatasvir dihydrochloride], the Emax in test [1] is -100%. For the same compound, the AC50 in test [1] (setting [3]) was found to be 32.9 µM; in test [2], 39 µM. Besides, the “SARS-CoV-2 PP (WA1 + D614G) Max Response” value in test [2] is recorded as -100%.
As to `CCOC(=O)c1ccc(OC(=O)CCCCCNC(=N)N)cc1` [Gabexate mesilate], the “inhibition of pseudotyped particle entry” value in test [1] (Calu-3 cells) was “inactive”.
In the case of `N=C(N)c1ccc2cc(OC(=O)c3ccc(N=C(N)N)cc3)ccc2c1` [Nafamostat mesilate], the IC50 was determined as 0.0014 µM in test [1] (setting [4]) and 0.00142 µM in test [1] (setting [5]). In addition, in test [1], the Emax was -100%. Besides, the AC50 in test [1] (setting [3]) was 0.0014 µM. Moreover, the “SARS-CoV-2 PP (WA1 + D614G) Max Response” value in test [2] is -100%.
Turning to `COC(=O)[C@H](Cc1cccc(C(=N)N)c1)[C@@H](C)NC(=O)c1ccc(-c2cc[n+]([O-])cc2)cc1` [Otamixaban], the Emax in test [1] worked out at 54%. Also, in test [1] (setting [3]), the AC50 came to 18 µM. In addition, in test [2], the “SARS-CoV-2 PP (WA1 + D614G) Max Response” value was -50% and the AC50 is 20 µM.
For `N=C(N)c1ccc2nc(-c3cc(CC(=O)N[C@@H](CC(=O)O)C(=O)O)cc(-c4cc(S(N)(=O)=O)ccc4O)c3O)[nH]c2c1` [PCI-27483], the Emax in test [1] was -66%. Also, the AC50 in test [1] (setting [3]) was determined as 15.8 µM; in test [2], 16.5 µM. Further, the “SARS-CoV-2 PP (WA1 + D614G) Max Response” value in test [2] is recorded as -66%.
As for AGN194310, in test [1] (Calu-3 cells), the AC50 came out at 38.4 µM and the “SARS-CoV-2 PP (Delta) Max Response” value is recorded as -86%. Also, in test [2], the “SARS-CoV-2 PP (WA1 + D614G) Max Response” value was -87% and the AC50 was found to be 22 µM.
On to Dibromopropamidine Dihydrochloride, for which, in test [1] (Calu-3 cells), the AC50 is 19.2 µM and the “SARS-CoV-2 PP (Delta) Max Response” value is recorded as -49%. In test [2], the “SARS-CoV-2 PP (WA1 + D614G) Max Response” value was -44% and the AC50 turned out to be 19.5 µM.
For G-007-LK the same measures were 1 µM, -67%, -73% and 0.5 µM.
Take Marizomib / Salinosporamide A: in test [1] (Calu-3 cells), the AC50 is < 0.05 µM and the “SARS-CoV-2 PP (Delta) Max Response” value was -100%. Also, in test [2], the “SARS-CoV-2 PP (WA1 + D614G) Max Response” value is given as -100% and the AC50 was < 0.05 µM.
